Measurements published in EP1359152B1, “Diazabicyclic derivatives as nicotinic acetylcholine receptor ligands” (ABBOTT LABORATORIES, priority 1999, dated 2000).

What was measured:
[1] = target: T1, neuronal nicotinic acetylcholine receptors (Rattus norvegicus, UniProt P09483+P12390); test: [3H]-cytisine binding to neuronal nicotinic acetylcholine receptors, crude synaptic membranes from whole rat brain
T1 construct: crude synaptic membrane preparations from whole rat brain; from tissue; host or cells: whole rat brain, crude synaptic membranes
T1 sequence (P09483 31-630): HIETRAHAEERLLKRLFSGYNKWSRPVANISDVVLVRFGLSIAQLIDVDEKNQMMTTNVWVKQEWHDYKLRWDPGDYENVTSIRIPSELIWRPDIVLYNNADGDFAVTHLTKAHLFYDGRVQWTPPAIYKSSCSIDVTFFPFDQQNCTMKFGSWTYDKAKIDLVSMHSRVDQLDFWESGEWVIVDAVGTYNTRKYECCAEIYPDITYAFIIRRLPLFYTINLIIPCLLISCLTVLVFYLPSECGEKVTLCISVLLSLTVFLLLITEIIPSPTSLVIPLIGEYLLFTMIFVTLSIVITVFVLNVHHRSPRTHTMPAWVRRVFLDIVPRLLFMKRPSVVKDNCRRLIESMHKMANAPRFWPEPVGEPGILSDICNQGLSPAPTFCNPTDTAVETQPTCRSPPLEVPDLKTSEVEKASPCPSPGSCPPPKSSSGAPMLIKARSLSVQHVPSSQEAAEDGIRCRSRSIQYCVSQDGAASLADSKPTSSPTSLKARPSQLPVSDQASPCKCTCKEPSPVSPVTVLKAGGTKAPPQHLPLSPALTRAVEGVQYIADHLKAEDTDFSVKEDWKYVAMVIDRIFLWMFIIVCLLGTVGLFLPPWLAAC
T1 sequence (P12390 25-500): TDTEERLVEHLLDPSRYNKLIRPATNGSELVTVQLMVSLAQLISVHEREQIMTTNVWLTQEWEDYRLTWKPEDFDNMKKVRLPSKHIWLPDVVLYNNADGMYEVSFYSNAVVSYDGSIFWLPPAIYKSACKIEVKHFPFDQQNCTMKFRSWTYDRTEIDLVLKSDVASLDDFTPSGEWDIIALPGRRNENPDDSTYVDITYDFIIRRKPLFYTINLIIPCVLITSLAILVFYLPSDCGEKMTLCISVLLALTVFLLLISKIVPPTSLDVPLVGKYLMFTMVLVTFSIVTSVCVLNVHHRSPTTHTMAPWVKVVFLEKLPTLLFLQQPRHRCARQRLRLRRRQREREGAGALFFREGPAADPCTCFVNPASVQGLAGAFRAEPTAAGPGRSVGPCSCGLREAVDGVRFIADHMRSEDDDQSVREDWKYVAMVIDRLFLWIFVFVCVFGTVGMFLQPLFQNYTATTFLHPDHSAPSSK
Procedure: The In Vitro protocols for determination of nicotinic acetylcholine channel receptor binding potencies of ligands were determined as follows.
Washed membranes were stored at-80 °C prior to use. Frozen aliquots were slowly thawed and resuspended in 20 volumes of buffer (containing: 120 mM NaCl, 5 mM KCI, 2 mM MgCl2, 2 mM CaCl2 and 50 mM Tris-Cl, pH 7.4 @4 °C). After centrifuging at 20,000x g for 15 minutes, the pellets were resuspended in 30 volumes of buffer.
The test compounds were dissolved in water to make 10 mM stock solutions. Each solution was then diluted (1:100) with buffer (as above) and further taken through seven serial log dilutions to produce test solutions from 10^-5 to 10^-11 M.
Samples were incubated for 60 minutes at 4 °C, then rapidly filtered through Whatman GF/B filters presoaked in 0.5% polyethyleneimine using 3 x 4 mL of ice-cold buffer. The filters are counted in 4 mL of Ecolume® (ICN). Nonspecific binding was determined in the presence of 10 µM (-)-nicotine and values were expressed as a percentage of total binding. IC50 values were determined with the RS-1 (BBN) nonlinear least squares curve-fitting program and IC50 values were converted to Ki values using the Cheng and Prusoff correction (Ki=IC50/(1+[ligand]/Kd of ligand).

mice = test: Mouse hot plate paradigm (analgesic effect, latency until tenth jump); type: in vivo; conditions: ip, 0.5 h, minimally effective dose among doses tested, intraperitoneal, dosed 30 minutes prior to testing, hot plate 55 °C, cut-off 180 seconds, increase in tenth jump latency relative to control, read-out: (MED)
Procedure: An in vivo protocol was utilized to determine the effectiveness of nicotinic acetylcholine receptor ligands as analgesic agents in the mouse hot plate paradigm.
Separate groups of mice, (n=8/group) were utilized for each dose group. All drugs were administered by the intraperitoneal route of administration. Test drugs were dissolved in water to make a 6.2 mM stock solution. Animals were dosed with this solution (10 mL/kg body weight) for a 62 micromol/kg dose. Lower doses were administered similarly, following serial dilution of the stock solution in half-log increments. Animals were dosed 30 minutes prior to testing in the hot plate. The hotplate utilized was an automated analgesia monitor (Model #AHP16AN, Omnitech Electronics, Inc. of Columbus, Ohio). The temperature of the hot plate was maintained at 55 °C and a cut-off time of 180 seconds was utilized. Latency until the tenth jump was recorded as the dependent measure. An increase in the tenth jump latency relative to the control was considered an effect.

Structure (SMILES) | Ki [1] [nM] | minimal effective dose (mice) [µmol/kg]
c1cncc(N2C[C@H]3C[C@@H]2CN3)c1 [Example 24, (1R,4R)-2-(3-pyridinyl)-2,5-diazabicyclo[2.2.1]heptane 4-methylbenzenesulfonate] | 0.012 | 6.2
Oc1cc(N2C[C@H]3C[C@@H]2CN3)cnc1Cl [Example 40, (1R,4R)-2-(6-chloro-5-hydroxy-3-pyridinyl)-2,5-diazabicyclo[2.2.1]heptane 4-methylbenzenesulfonate] | 0.17 | 19
